Here are results for 24 compounds from ChEMBL document CHEMBL1129008, “Novel 1, 2, 4-oxadiazoles as potent and selective histamine H3 receptor antagonists” (Bioorg Med Chem Lett, 1996).

Assay [1] addresses Histamine H3 receptor (Rattus norvegicus, UniProt Q9QYN8). As to the kind of experiment: Binding affinity against H3 receptor in rat cerebral cortex membranes was evaluated using [3H]N-methyl-histamine as radioligand. The format is cell membranes, Membrane.
Assay [2] deals with Histamine H3 receptor (Cavia porcellus) (UniProt Q9JI35). Kind of assay: Antagonistic activity at H3 receptor was assessed on guinea-pig longitudinal muscle strips subjected to electrical field stimulation. The format is functional.
Chain of Histamine H3 receptor (Cavia porcellus) (Q9JI35 whole entry): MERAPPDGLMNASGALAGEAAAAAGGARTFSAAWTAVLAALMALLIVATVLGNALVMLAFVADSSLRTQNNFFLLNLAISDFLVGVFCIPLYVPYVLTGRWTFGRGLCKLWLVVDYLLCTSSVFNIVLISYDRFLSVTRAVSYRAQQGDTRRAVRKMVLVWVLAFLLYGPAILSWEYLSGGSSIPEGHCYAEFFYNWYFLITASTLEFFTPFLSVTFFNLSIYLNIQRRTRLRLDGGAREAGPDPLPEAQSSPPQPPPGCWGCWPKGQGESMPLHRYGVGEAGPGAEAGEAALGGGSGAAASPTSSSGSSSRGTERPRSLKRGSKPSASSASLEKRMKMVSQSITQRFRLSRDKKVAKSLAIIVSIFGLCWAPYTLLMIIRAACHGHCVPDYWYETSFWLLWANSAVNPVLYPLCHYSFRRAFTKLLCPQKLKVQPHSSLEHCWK
Assay [3] has as its target Histamine H1 receptor (Cavia porcellus) (UniProt P31389). As to the kind of experiment: Antagonistic activity against H1 receptor was determined in histamine induced contractions of guinea pig isolated whole ileum. The format is functional, tissue-based.
Assay [4] concerns the target Histamine H2 receptor (Cavia porcellus) (UniProt P47747). As to the kind of experiment: Antagonistic activity at H2 receptor was assessed against histamine-induced tachycardia in guinea pig isolated atria. The format is functional.
Assay [5] has as its system Rattus norvegicus. Kind of assay: Compound was tested in vivo for (R)-alpha- methyl-histamine induced dipsogenicity in rats, upon peroral administration. The format is functional. To be noted: po.
The test system of assay [6] is Rattus norvegicus. Kind of assay: Compound was tested in vivo for (R)-alpha- methyl-histamine induced dipsogenicity in rats, upon subcutaneous administration. The format is functional. To be noted: sc.
Assay [7] has as its system Rattus norvegicus. As to the kind of experiment: Antagonism of ex vivo binding to rat cortex/hippocampus was determined using [3H]-N-alpha-Methylhistamine, after peroral administration. The format is functional. Conditions: po.
Assay [8] deals with Rattus norvegicus. Kind of assay: Antagonism of ex vivo binding to rat cortex/hippocampus was determined using [3H]-N-alpha-Methylhistamine, after subcutaneous administration. The format is functional. Conditions: sc.

Where only a bound is given, the exact number is not on record here.

Chain of Histamine H2 receptor (Cavia porcellus) (P47747 whole entry): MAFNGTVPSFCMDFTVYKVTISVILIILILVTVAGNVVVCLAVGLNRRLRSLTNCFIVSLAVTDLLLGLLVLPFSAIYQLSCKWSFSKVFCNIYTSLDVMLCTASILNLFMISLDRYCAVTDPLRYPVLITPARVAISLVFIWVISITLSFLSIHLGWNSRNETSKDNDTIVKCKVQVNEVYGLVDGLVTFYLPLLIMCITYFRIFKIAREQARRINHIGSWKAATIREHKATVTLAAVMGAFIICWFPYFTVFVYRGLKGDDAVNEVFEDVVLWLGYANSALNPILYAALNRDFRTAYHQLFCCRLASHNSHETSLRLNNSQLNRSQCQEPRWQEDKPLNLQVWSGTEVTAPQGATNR
Chain of Histamine H1 receptor (Cavia porcellus) (P31389 whole entry): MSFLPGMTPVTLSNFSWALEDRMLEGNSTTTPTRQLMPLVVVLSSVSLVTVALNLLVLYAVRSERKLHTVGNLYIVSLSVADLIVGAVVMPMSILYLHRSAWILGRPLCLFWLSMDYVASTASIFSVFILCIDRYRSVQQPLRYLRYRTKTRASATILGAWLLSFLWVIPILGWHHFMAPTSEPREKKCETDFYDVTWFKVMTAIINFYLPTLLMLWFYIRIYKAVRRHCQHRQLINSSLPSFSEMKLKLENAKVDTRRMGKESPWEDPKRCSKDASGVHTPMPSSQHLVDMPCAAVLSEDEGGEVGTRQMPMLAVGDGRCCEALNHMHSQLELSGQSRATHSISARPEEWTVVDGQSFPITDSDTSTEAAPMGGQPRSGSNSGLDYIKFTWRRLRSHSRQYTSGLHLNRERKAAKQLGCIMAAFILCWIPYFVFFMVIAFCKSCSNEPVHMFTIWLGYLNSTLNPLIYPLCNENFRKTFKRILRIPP
Chain of Histamine H3 receptor (Q9QYN8 whole entry): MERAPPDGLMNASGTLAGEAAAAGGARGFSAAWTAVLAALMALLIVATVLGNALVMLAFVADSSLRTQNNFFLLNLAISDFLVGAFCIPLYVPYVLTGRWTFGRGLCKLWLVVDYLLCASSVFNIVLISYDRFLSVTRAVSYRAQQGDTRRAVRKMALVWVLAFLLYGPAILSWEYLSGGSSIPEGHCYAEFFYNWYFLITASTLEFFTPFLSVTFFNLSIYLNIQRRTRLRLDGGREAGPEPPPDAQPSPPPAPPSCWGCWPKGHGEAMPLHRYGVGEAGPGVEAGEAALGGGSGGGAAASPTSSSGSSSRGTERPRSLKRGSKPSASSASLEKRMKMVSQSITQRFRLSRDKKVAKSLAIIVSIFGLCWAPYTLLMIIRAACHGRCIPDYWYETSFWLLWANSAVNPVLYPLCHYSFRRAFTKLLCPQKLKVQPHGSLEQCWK

The compound `CSc1ccc(Cc2noc(CCc3c[nH]cn3)n2)cc1` had a Ki in assay [1] of 25.1 nM. This counts as double-digit nanomolar.

In turn, `Clc1ccc(Cc2noc(Cc3c[nH]cn3)n2)cc1` yielded a pKB in assay [2] of 7.2. This compound also had an inhibition constant (Ki) in assay [1] of 25.1 nM.

Consider `Cn1nc(CCc2c[nH]cn2)nc1Cc1ccc(Cl)cc1`, for which the pKB in assay [2] turned out to be 5.8. Also, the Ki in assay [1] was 126 nM.

In the case of `Fc1ccc(Cc2noc(CCc3c[nH]cn3)n2)cc1`, the pKB in assay [2] came to 8.4. Besides, in assay [1], the Ki is 10 nM.

Take `Clc1ccc(Cc2n[nH]c(CCc3c[nH]cn3)n2)cc1`: in assay [2], the pKB worked out at 5.7. This compound had a Ki in assay [1] of 200 nM.

Turning to `Clc1ccc(CCc2noc(CCc3c[nH]cn3)n2)cc1`, the values for the pKB in assay [2], in assay [3] and in assay [4] were 7.7, under 5 and under 5, respectively. The compound further gave an inhibition constant (Ki) in assay [1] of 20 nM.

`Clc1ccc(Cc2noc(CCCc3cnc[nH]3)n2)cc1`: the Ki in assay [1] was 25.1 nM.

With `CS(=O)(=O)Nc1ccc(Cc2noc(CCc3c[nH]cn3)n2)cc1`, the inhibition constant Ki in assay [1] was 1260 nM.

Regarding `Clc1ccc(Cc2noc(CCCc3c[nH]cn3)n2)cc1`, the negative logarithm of the KB (pKB) in assay [2] was 6.8; in assay [3], under 5; in assay [4], under 5.

`c1ccc(-c2ccc(Cc3noc(CCc4c[nH]cn4)n3)cc2)cc1` gave a negative logarithm of the KB (pKB) in assay [2] of 6.6. In assay [1], this compound gave a Ki of 63.1 nM.

For `N=C(NCc1ccc(Cl)cc1)SCCCc1c[nH]cn1` [CLOBENPROPIT], the values for the negative logarithm of the KB (pKB) in assay [2], in assay [3] and in assay [4] were 9.9, under 6 and under 6, respectively. Moreover, the 50% effective dose (ED50) in assay [5] is 2.4 mg/kg; in assay [6], 1.3 mg/kg; in assay [7], over 30 mg/kg; in assay [8], 10.5 mg/kg.

Turning to `S=C(NC1CCCCC1)N1CCC(c2cnc[nH]2)CC1` [THIOPERAMIDE], the values for the pKB in assay [2], in assay [3] and in assay [4] were 8.3, under 5 and under 5, respectively. Besides, the ED50 in assay [5] was found to be 0.8 mg/kg; in assay [6], 0.8 mg/kg; in assay [7] it was 6 mg/kg; in assay [8] it was 5.1 mg/kg.

With `CS(=O)(=O)c1ccc(Cc2noc(CCc3c[nH]cn3)n2)cc1`, in assay [1], the inhibitory constant (Ki) was 316 nM. That is a sub-micromolar value.

For the compound `Ic1ccc(Cc2noc(CCc3c[nH]cn3)n2)cc1`, in assay [2], the negative logarithm of the KB (pKB) stood at 7.1. In assay [1], the Ki was 6.31 nM.

In assay [1], `Clc1ccc(CCc2noc(Cc3c[nH]cn3)n2)cc1` gave a Ki of 251 nM.

`Clc1ccc(Cc2nnc(CCc3c[nH]cn3)s2)cc1`: the values for the pKB in assay [2] and in assay [4] were 7 and 5.8, respectively. Also, the affinity in assay [1] corresponds to a Ki of 100 nM.

On to `COc1ccc(Cc2noc(CCc3c[nH]cn3)n2)cc1`, for which the negative-log KB (pKB) in assay [2] stood at 6.5. This compound gave a Ki in assay [1] of 39.8 nM.

Regarding `Clc1ccc(Cc2n[nH]c(CCCc3c[nH]cn3)n2)cc1`, the negative-log KB (pKB) is 7.4 in assay [2], under 5 in assay [3] and under 5 in assay [4]. This compound gave an inhibitory constant (Ki) in assay [1] of 12.6 nM.

Take `FC(F)(F)c1ccc(Cc2noc(CCc3c[nH]cn3)n2)cc1`: in assay [2], the negative-log KB (pKB) came out at 8.3. In addition, in assay [1], the inhibition constant (Ki) was 7.94 nM.

As to `Clc1ccc(Cc2nc(CCc3c[nH]cn3)no2)cc1`, the pKB in assay [2] was determined as 7; in assay [4], 5.6. The compound also showed a Ki in assay [1] of 20 nM.

Take `C[S+]([O-])c1ccc(Cc2noc(CCc3c[nH]cn3)n2)cc1` (stereo not given): the Ki in assay [1] was 2510 nM.

`Clc1ccc(Cc2csc(CCc3c[nH]cn3)n2)cc1` yielded a pKB in assay [2] of 7.3. This compound also showed an inhibition constant Ki in assay [1] of 200 nM.

`Clc1ccc(Cc2noc(CCc3c[nH]cn3)n2)cc1Cl`: in assay [2], the negative-log KB (pKB) came out at 8. Also, the affinity in assay [1] corresponds to a Ki of 3.16 nM.

With `Clc1ccc(Cc2noc(CCc3c[nH]cn3)n2)cc1` [GR-175737], the ED50 in assay [6] amounted to 1 mg/kg; in assay [7], 1.2 mg/kg; in assay [8], 1.4 mg/kg.

What is called Ki is a measure of affinity in units of concentration, obtained from inhibition or displacement. Higher therefore signals a looser hold on the target. By pKB is commonly meant the KB on a negative log10 scale, so that one unit is a factor of ten. A low value points to a large KB. Broadly, the ED50 is the dose at which the effect has come halfway, by size or by number of responders. A higher ED50 goes with weaker potency.
